Source: patent US6492563B2, “Fragrance precursors” (Givaudan SA, priority 2000, dated 2002)

Legend:
Format in all cases: physicochemical
[1] = Photolysis of phenacyl acetals (I) in solution, mercury lamp, GC-FID; set-up: key: 0: no cleavage; +: slow cleavage; ++: medium cleavage; +++: fast cleavage; conditions: solution (ethanol), mercury lamp 150 W, Pyrex, one hour irradiation
Procedure: Photorelease assays were conducted on solutions (typical concentrations of precursors (I): 0.05% to 0.1% g/v) in organic solvents (preferably ethanol) or on cotton towels after deposition of the phenacyl acetals (I), as described below in the example 3.
The solutions were irradiated with a mercury lamp (150 W) in a borosilicate glass apparatus (Pyrex®) so as to limit the irradiation window to mainly the UVA and UVB spectrum of sun light. The alcoholic solution was irradiated for one hour and samples taken every 15 minutes to analyze the extent of the photolysis.
The presence of the aryl ketone (II) and ester (III) after photolysis in solutions was determined by using GC retention times. Samples (0.2 μl) were injected (on column injection) without further dilution. Gas chromatography-flame ionization detection (GC-FID) was carried out with a Fisons-GC 8000 series apparatus, using a J&W Scientific DB-5 capillary column (30 m, 0.32 mm id, 0.25 μm film, He carrier gas, 85 kPa).
Whereas precursors derived from Oranger Crystals® cleaved fairly slowly (FIG. 1), those derived from acetanisole cleaved fast and Fixolide® precursors even faster. The rates are calculated from the GC analysis (corresponding peak area).

[2] = Stability tests in aqueous buffer solutions; conditions: for Stability at pH 2.5: aqueous buffer pH 2.5, 24 h at 37° C.; for Stability at pH 7: aqueous buffer pH 7, 24 h at 37° C.; for Stability at pH 9.5: aqueous buffer pH 9.5, 24 h at 37° C.
[3] = Stability in washing liquor (washing conditions, OMO Progress base), HPLC; conditions: for Stability at pH 11: pH 11, washing conditions as in example 5; for Amount ecovered / Recovered: washing liquor stirred one hour at room temperature; for Amount ecovered: extraction, HPLC; for Recovered: relative to amount incorporated
Procedure: (§1) Washing tests were performed according to the following hand washing test cedure with OMO Progress® base which contains the following ingredients:
(§2) 1- The washing powder (2.1 g) containing the phenacyl acetal (I, about 21 mg, 1%) was dissolved in water (500 ml) at room temperature.
The washing liquor (2.1 g washing powder containing 1% phenacyl acetal (I) in 500 ml water), according to 1 in the above described washing procedure, was stirred during one hour at room temperature. Extraction with an organic solvent (preferably t-butyl methyl ether) to recover organic compounds and analysis with HPLC gave the amounts of recovered phenacyl acetal (I), table 4.

[4] = Hand washing tests: partition between water and fabric (substantivity), HPLC; conditions: for Amounts recovered: Water: extract of aqueous washing liquor after hand washing; for Amounts recovered: Water, % (±10%): extract of aqueous washing liquor; for Amounts recovered: Water, % (±10%) / Amounts recovered: Towel extract, % (±10%): of amount incorporated; for Amounts recovered: Towel extract: extract of dried towels after hand washing; for Amounts recovered: Towel extract, % (±10%): extract of dried towels
Procedure: as §1, §2
2- The towels (35 g) were added to the liquor and mixed with a glass stick.
3- Towels were soaked for 45 minutes with stirring every 15 minutes.
4- The wringed towels were rinsed three times with fresh water (250 ml) with intermediate wringing.
5- Towels were allowed to dry in a dark and odorless place before analysis or evaluation.
The towels were extracted with an organic solvent (preferably t-butyl methyl ether) using a Dionex ASE200 Accelerated Solvent Extractor and the extracts were analyzed by HPLC (Hewlett Packard Series 1100, column: Zorbax Eclipse XDB-C18, dimensions 15 cm×4.6 mm×5 μm).
The washing liquor was extracted with an organic solvent (preferably t-butyl methyl ether, 250 ml) and analyzed by HPLC as above.
The aqueous liquors were extracted with an organic solvent (preferably t-butyl methyl ether) and analytical HPLC gave the results in table 5, which are related to partition between water and fabric.

Compound	UV-test (release of aryl ketone (II) and ester (III), cleavage) [1]	Stability at pH 2.5 [2]	Stability at pH 7 [2]	Stability at pH 9.5 [2]	Stability at pH 11 [3]	Amount ecovered [3] [mg]	Recovered [3] [%]	Amounts recovered: Water [4] [mg]	Amounts recovered: Water, % (±10%) [4] [%]	Amounts recovered: Towel extract [4] [mg]	Amounts recovered: Towel extract, % (±10%) [4] [%]
CCOC(C)OCC(=O)c1ccc(OC)cc1 (centres unmarked) [compound 1, 2-(1-Ethoxy-ethoxy)-1-(4-methoxy-phenyl)-ethanone]	++	unstable	stable	stable							
COc1ccc(C(=O)COC(C)OCCc2ccccc2)cc1 (centres unmarked) [compound 2, 1-(4-Methoxy-phenyl)-2-(1-phenethyloxy-ethoxy)-ethanone]	++	unstable	stable	stable	stable	18.5	83	15	63	10.5	44
CC/C=C\CCOC(C)OCC(=O)c1ccc(OC)cc1 (centres unmarked) [compound 3, 2-(1-Hex-3(Z)-enyloxy-ethoxy)-1-(4-methoxy-phenyl)-ethanone]	++	unstable	stable	stable	stable	22.3	100	13.3	59	14	62
COc1ccc(C(=O)COC(C)OCCC(C)CC(C)(C)C)cc1 (centres unmarked) [compound 4, 1-(4-Methoxy-phenyl)-2-[1-(3,5,5-trimethyl-hexyloxy)-ethoxyl]-ethanone]	++	unstable	stable	stable	stable	23.5	100	17.5	75	8.9	38
CCCCCCOC(C)OCC(=O)c1ccc(OC)cc1 (centres unmarked) [compound 5, 2-(1-Hexyloxy-ethoxy)-1-(4-methoxy-phenyl)-ethanone]	++	unstable	stable	stable	stable	25.7	100	18.4	73	11.7	46
COc1ccc(C(=O)COC(C)OCCCc2ccccc2)cc1 (centres unmarked) [compound 6, 1-(4-Methoxy-phenyl)-2-[1-(3-phenyl-propoxy)-ethoxy]-ethanone]	++	unstable	stable	stable	stable	20.8	94	14.5	65	17	47
COc1ccc(C(=O)COC(C)OCCC(C)CCC=C(C)C)cc1 (centres unmarked) [compound 7, 2-[1-(3,7-Dimethyl-oct-6-enyloxy)-ethoxy]-1-(4-methoxy-phenyl)-ethanone]	++										
CCCCCCOC(C)OCC(=O)c1cc2c(cc1C)C(C)(C)C(C)CC2(C)C (centres unmarked) [compound 8, 1-(3,5,5,6,8,8-Hexamethyl-5,6,7,8-tetrahydro-naphthalen-2-yl)-2-(1-hexyloxy-ethoxy)-ethanone]	+++	stable	stable	stable	stable	22.2	99	16.3	69	8.7	42
CC/C=C\CCOC(C)OCC(=O)c1cc2c(cc1C)C(C)(C)C(C)CC2(C)C (centres unmarked) [compound 9, 1-(3,5,5,6,8,8-Hexamethyl-5,6,7,8-tetrahydro-naphthalen-2-yl)-2-(1-hex-3(Z)-enyloxy-ethoxy)-ethanone]	+++	stable	stable	stable	stable	20.0	96	15.3	67	10.3	45
CCOC(C)OCC(=O)c1cc2c(cc1C)C(C)(C)C(C)CC2(C)C (centres unmarked) [compound 10, 2-(1-Ethoxy-ethoxy)-1-(3,5,5,6,8,8-hexamethyl-5,6,7,8-tetrahydro-naphthalen-2-yl)-ethanone]	+++										
CCCCCCOC(C)OCC(=O)c1ccc2ccccc2c1 (centres unmarked) [compound 11, 2-(1-Hexyloxy-ethoxy)-1-naphthalen-2-yl-ethanone]	+										
CC(C)=CCCC(C)CCOC(C)OCC(=O)c1ccc2ccccc2c1 (centres unmarked) [compound 12, 2-[1-(3,7-Dimethyl-oct-6-enyloxy)-ethoxy-]1-naphthalen-2-yl-ethanone]	+										
COc1ccc(C(=O)COC(Cc2ccccc2)OC)cc1 (centres unmarked) [compound 15, 1-(4-Methoxy-phenyl)-2-(1-methoxy-2-phenyl-ethoxy)-ethanone]	++										
